In BigSolDB 2.1:

CO/N=C(\C(=O)N[C@@H]1C(=O)N2C(C(=O)O)=C(CSC(=O)c3ccco3)CS[C@H]12)c1csc(N)n1.Cl
Conditions | solubility (mole fraction)
in acetone, 283.36 K | 1e-05
in acetone, 288.2 K | 1.6e-05
in acetone, 293.15 K | 2.7e-05
in acetone, 298.05 K | 4.3e-05
in acetone, 302.87 K | 7e-05
in acetone, 307.65 K | 0.00011
in acetone, 313.45 K | 0.000193
in acetone, 318.4 K | 0.000313
in acetone, 322.35 K | 0.000478
in ethanol, 283.35 K | 0.00178
in ethanol, 288.15 K | 0.00192
in ethanol, 293.15 K | 0.00209
in ethanol, 298.15 K | 0.00233
in ethanol, 303.1 K | 0.00262
in ethanol, 307.95 K | 0.00292
in ethanol, 313.55 K | 0.00335
in ethanol, 318.75 K | 0.00384
in ethanol, 322.65 K | 0.00421
in isopropanol, 283.2 K | 0.000235
in isopropanol, 288.2 K | 0.000255
in isopropanol, 293.15 K | 0.000311
in isopropanol, 298.15 K | 0.000402
in isopropanol, 303.05 K | 0.000535
in isopropanol, 308 K | 0.000649
in isopropanol, 312.8 K | 0.000793
in isopropanol, 318.45 K | 0.001
in isopropanol, 324.35 K | 0.00134
in methanol, 283.25 K | 0.00952
in methanol, 288.25 K | 0.00992
in methanol, 293.15 K | 0.0105
in methanol, 297.85 K | 0.0112
in methanol, 300.55 K | 0.0116
in methanol, 307.35 K | 0.0127
in methanol, 313.3 K | 0.0137
in methanol, 317.95 K | 0.0148
in methanol, 320.65 K | 0.0155
in n-propanol, 283.55 K | 0.000534
in n-propanol, 288.55 K | 0.000573
in n-propanol, 293.35 K | 0.000646
in n-propanol, 298.35 K | 0.000717
in n-propanol, 303.35 K | 0.000802
in n-propanol, 308.05 K | 0.000922
in n-propanol, 312.95 K | 0.00103
in n-propanol, 317.95 K | 0.00117
in n-propanol, 322.75 K | 0.00135
